Measured values from patent publication US10098867B2, “Use of phytocannabinoids in the treatment of ovarian carcinoma” (GW Research Limited, priority 2013, dated 2018).

Columns and labels:
[1] = tested on: ovarian carcinoma cell line, A2780; test: MTT cell viability assay, combinations of phytocannabinoids (Example 2); assay type: cell-based; settings: Homo sapiens, A2780 cells
Protocol: (§1) An ovarian carcinoma cell line, A2780 was grown and maintained in RPMI 1640 medium supplemented with 10% fetal bovine serum at 37° C., 5% CO2. The cells were plated in 96-well culture plates at a density of 1×10^4 cells/well and allowed to adhere at 37° C. for 24 hours.
The different phytocannabinoid combinations that were tested were: A: cannabidiol (CBD) in combination with tetrahydrocannabivarin (THCV) and B: CBD in combination with cannabigerol (CBG).
The cells were starved with 1% serum overnight. In Experiment A various doses of CBD (1 nM-10 μM) were tested in the absence or presence of 1 hours pre-treatment of THCV (1 μM) for various incubation periods. In Experiment B various doses of CBD (1 nM-10 μM) were tested in the absence or presence of CBG (1 nM-100 μM) for various incubation periods.
A cell viability assay, MTT, was performed following four different incubation times of 24 hours, 48 hours (CBG combination only), 72 hours and 96 hours.
(§2) The supernatant was removed and MTT (3-(4,5-dimethylthiazol-2-yl)-2,5-diphenyltetrazolium bromide) was added for 4 hours. The ability of cells to form formazan crystals by active mitochondrial respiration was determined by using a Microplate reader after dissolving the crystals in DMSO.
(§3) Cytotoxicity was expressed as a relative percentage of the absorbance measured at 540 nm in the control and drug-treated cells. IC50 values were also calculated.
(§4) In all experiments data were presented as the mean and analysed using ANOVA followed by Dunnet's t-test; n=4.

[2] = tested on: ovarian carcinoma cell line, A2780; test: MTT cell viability assay, single phytocannabinoids (Example 1); assay type: cell-based; settings: A2780 cells; for IC50: MTT
Protocol: as §1
The cells were starved with 1% serum overnight, then treated with various concentrations of different phytocannabinoid ([…]) for various incubation periods.
The different phytocannabinoids tested were: cannabidiol (CBD); cannabidiol acid (CBDA); cannabigerol (CBG); cannabigerolic acid (CBGA); cannabigerol propyl variant (CBGV); and tetrahydrocannabivarin (THCV).
A cell viability assay, MTT, was performed following four different incubation times of 24 hours, 48 hours, 72 hours and 96 hours.
as §2, §3, §4

[3] = A2780, 24 h, Experiment A (CBD with or without 1 hour pre-treatment with THCV 1 μM), 24 hours
[4] = A2780, 24 h, Experiment B (CBD in absence or presence of CBG), 24 hours
[5] = A2780, 48 h, Experiment B (CBD in absence or presence of CBG), 48 hours
[6] = A2780, 72 h, Experiment A (CBD with or without 1 hour pre-treatment with THCV 1 μM), 72 hours
[7] = A2780, 72 h, Experiment B (CBD in absence or presence of CBG), 72 hours
[8] = A2780, 96 h, Experiment A (CBD with or without 1 hour pre-treatment with THCV 1 μM), 96 hours
[9] = A2780, 96 h, Experiment B (CBD in absence or presence of CBG), 96 hours
[10] = 24 hours after the cannabinoids were added
[11] = Homo sapiens, 24 hours incubation
[12] = Homo sapiens, 48 hours incubation
[13] = Homo sapiens, 72 hours incubation
[14] = Homo sapiens, 96 hours incubation

C=C(C)[C@@H]1CCC(C)=C[C@H]1c1c(O)cc(CCCCC)cc1O [CBD, Cannabidiol]
IC50 [1, 3]: 12.5 µM | IC50 [1, 4]: 11.8 µM | IC50 [1, 5]: 6.85 µM | IC50 [1, 6]: 5.87 µM | IC50 [1, 7]: 7.92 µM | IC50 [1, 8]: 5.62 µM | IC50 [1, 9]: 4.43 µM | potency in words [2, 10]: very potent | IC50 [2, 11]: 0.98 µM | IC50 [2, 12]: 0.95 µM | IC50 [2, 13]: 1.9 µM | IC50 [2, 14]: 3.63 µM

C=C(C)[C@@H]1CCC(C)=C[C@H]1c1c(O)cc(CCCCC)c(C(=O)O)c1O [CBDA, Cannabidiolic acid]
IC50 [2, 11]: 16 µM | IC50 [2, 12]: 9.5 µM | IC50 [2, 13]: 10 µM | IC50 [2, 14]: 11.8 µM

CCCCCc1cc(O)c(C/C=C(\C)CCC=C(C)C)c(O)c1 [CBG, Cannabigerol]
IC50 [1, 4]: 13.9 µM | IC50 [1, 5]: 9.48 µM | IC50 [1, 7]: 9.96 µM | IC50 [1, 9]: 8.96 µM | potency in words [2, 10]: very potent | potency in words ([2]; after 48 hours): marginally more potent than CBD | IC50 [2, 11]: 2 µM | IC50 [2, 12]: 0.83 µM | IC50 [2, 13]: 0.85 µM | IC50 [2, 14]: 3.38 µM

CCCc1cc(O)c(C/C=C(\C)CCC=C(C)C)c(O)c1 [CBGV, Cannabigerol propyl variant]
IC50 [2, 11]: 6 µM | IC50 [2, 12]: 3.5 µM | IC50 [2, 13]: 4 µM

CCCc1cc(O)c2c(c1)OC(C)(C)[C@@H]1CCC(C)=C[C@@H]21 [THCV, Tetrahydrocannabivarin]
IC50 [1, 3]: 16.2 µM | IC50 [1, 6]: 14.8 µM | IC50 [1, 8]: 10.5 µM | IC50 [2, 11]: 8 µM | IC50 [2, 12]: 5.75 µM | IC50 [2, 13]: 8.75 µM | IC50 [2, 14]: 9 µM

Cannabigerolic acid [CBGA]
IC50 ([2]; 24 hours incubation): 12.5 µM | IC50 ([2]; 48 hours incubation): 9.9 µM | IC50 ([2]; 72 hours incubation): 9.25 µM
